ChEMBL document CHEMBL1148869, “Synthesis and SAR studies of potent imidazopyridine anticoccidial agents” (Bioorg Med Chem Lett, 2007)

System: Eimeria tenella
Experiment: Anticoccidial activity against Eimeria tenella infected Chick assessed as reduction in oocyst production at 12.5 ppm after 7 days
Type: functional
Parameters: scale not given: the % may be the effect or the level left

| Compound | Activity [%] |
| --- | --- |
| CN(C)Cc1ccn2c(-c3ccnc(Nc4ccccc4)n3)c(-c3ccc(F)cc3)nc2c1 | >80 |
| C[C@H](Nc1nccc(-c2c(-c3ccc(F)cc3)nc3cc(CN(C)CCCN(C)C)ccn23)n1)c1ccccc1 | <50 |

System: Eimeria acervulina
Experiment: Anticoccidial activity against Eimeria acervulina infected Chick assessed as reduction in oocyst production at 25 ppm after 7 days
Type: functional
Parameters: scale not given: the % may be the effect or the level left

| Compound | Activity [%] |
| --- | --- |
| C[C@H](Nc1nccc(-c2c(-c3ccc(F)cc3)nc3cc(CN(C)CC4CCCO4)ccn23)n1)c1ccccc1 (stereo partly drawn) | <50 |
| CN(C)Cc1ccn2c(-c3ccnc(NCc4ccccc4)n3)c(-c3ccc(F)cc3)nc2c1 | >80 |
| CC(C)N(C)Cc1ccn2c(-c3ccnc(NCC(C)(C)C)n3)c(-c3ccc(F)cc3)nc2c1 | <50 |
| C[C@H](Nc1nccc(-c2c(-c3ccc(F)cc3)nc3cc(CN(C)[C@@H](C)C(=O)N(C)C)ccn23)n1)c1ccccc1 | 50 |
| C[C@H](Nc1nccc(-c2c(-c3ccc(F)cc3)nc3cc(CN(C)CCNS(C)(=O)=O)ccn23)n1)c1ccccc1 | <50 |
| CN(C)Cc1ccn2c(-c3ccnc(NCC(C)(C)C)n3)c(-c3ccc(F)cc3)nc2c1 | <50 |
| CC(C)Nc1nccc(-c2c(-c3ccc(F)cc3)nc3cc(CN(C)C)ccn23)n1 | >80 |
| CCN(C)Cc1ccn2c(-c3ccnc(NCC(C)(C)C)n3)c(-c3ccc(F)cc3)nc2c1 | <50 |
| CC(C)N(C)Cc1ccn2c(-c3ccnc(N[C@@H](C)c4ccccc4)n3)c(-c3ccc(F)cc3)nc2c1 | >80 |
| C[C@H](Nc1nccc(-c2c(-c3ccc(F)cc3)nc3cc(CN(C)CCO)ccn23)n1)c1ccccc1 | <50 |
| CC(C)(C)CNc1nccc(-c2c(-c3ccc(F)cc3)nc3cc(CN4CCC4)ccn23)n1 | <0 |
| CC(C)NCc1ccn2c(-c3ccnc(N[C@@H](C)c4ccccc4)n3)c(-c3ccc(F)cc3)nc2c1 | >80 |

System: Eimeria acervulina
Experiment: Anticoccidial activity against Eimeria acervulina infected Chick assessed as reduction in oocyst production at 50 ppm after 7 days
Type: functional
Parameters: scale not given: the % may be the effect or the level left

| Compound | Activity [%] |
| --- | --- |
| CCOC(=O)N1CCN(Cc2ccn3c(-c4ccnc(N[C@@H](C)c5ccccc5)n4)c(-c4ccc(F)cc4)nc3c2)CC1 | <50 |
| C[C@H](Nc1nccc(-c2c(-c3ccc(F)cc3)nc3cc(CN(C)CC(=O)N4CCC4)ccn23)n1)c1ccccc1 | <50 |
| C[C@H](Nc1nccc(-c2c(-c3ccc(F)cc3)nc3cc(CN(C)CCN4CCC4)ccn23)n1)c1ccccc1 | <50 |
| C[C@H](Nc1nccc(-c2c(-c3ccc(F)cc3)nc3cc(CN(C)C(CO)CO)ccn23)n1)c1ccccc1 | <50 |
| C[C@H](Nc1nccc(-c2c(-c3ccc(F)cc3)nc3cc(CN(C)CC(=O)N4CCCC4)ccn23)n1)c1ccccc1 | <50 |
| CCN(C)Cc1ccn2c(-c3ccnc(N[C@@H](C)c4ccccc4)n3)c(-c3ccc(F)cc3)nc2c1 | >80 |

System: Eimeria tenella
Experiment: Anticoccidial activity against Eimeria tenella infected Chick assessed as reduction in oocyst production at 50 ppm after 7 days
Type: functional
Parameters: scale not given: the % may be the effect or the level left

| Compound | Activity [%] |
| --- | --- |
| CCOC(=O)N1CCN(Cc2ccn3c(-c4ccnc(N[C@@H](C)c5ccccc5)n4)c(-c4ccc(F)cc4)nc3c2)CC1 | <50 |
| C[C@H](Nc1nccc(-c2c(-c3ccc(F)cc3)nc3cc(CN(C)CC(=O)N4CCC4)ccn23)n1)c1ccccc1 | <50 |
| C[C@H](Nc1nccc(-c2c(-c3ccc(F)cc3)nc3cc(CN(C)CCN4CCC4)ccn23)n1)c1ccccc1 | >80 |
| C[C@H](Nc1nccc(-c2c(-c3ccc(F)cc3)nc3cc(CN(C)C(CO)CO)ccn23)n1)c1ccccc1 | >80 |
| C[C@H](Nc1nccc(-c2c(-c3ccc(F)cc3)nc3cc(CN(C)CC(=O)N4CCCC4)ccn23)n1)c1ccccc1 | >80 |
| CCN(C)Cc1ccn2c(-c3ccnc(N[C@@H](C)c4ccccc4)n3)c(-c3ccc(F)cc3)nc2c1 | >80 |

Biological target: cGMP-dependent protein kinase (Eimeria tenella, UniProt Q8MMZ8)
Sequence (Q8MMZ8 whole entry): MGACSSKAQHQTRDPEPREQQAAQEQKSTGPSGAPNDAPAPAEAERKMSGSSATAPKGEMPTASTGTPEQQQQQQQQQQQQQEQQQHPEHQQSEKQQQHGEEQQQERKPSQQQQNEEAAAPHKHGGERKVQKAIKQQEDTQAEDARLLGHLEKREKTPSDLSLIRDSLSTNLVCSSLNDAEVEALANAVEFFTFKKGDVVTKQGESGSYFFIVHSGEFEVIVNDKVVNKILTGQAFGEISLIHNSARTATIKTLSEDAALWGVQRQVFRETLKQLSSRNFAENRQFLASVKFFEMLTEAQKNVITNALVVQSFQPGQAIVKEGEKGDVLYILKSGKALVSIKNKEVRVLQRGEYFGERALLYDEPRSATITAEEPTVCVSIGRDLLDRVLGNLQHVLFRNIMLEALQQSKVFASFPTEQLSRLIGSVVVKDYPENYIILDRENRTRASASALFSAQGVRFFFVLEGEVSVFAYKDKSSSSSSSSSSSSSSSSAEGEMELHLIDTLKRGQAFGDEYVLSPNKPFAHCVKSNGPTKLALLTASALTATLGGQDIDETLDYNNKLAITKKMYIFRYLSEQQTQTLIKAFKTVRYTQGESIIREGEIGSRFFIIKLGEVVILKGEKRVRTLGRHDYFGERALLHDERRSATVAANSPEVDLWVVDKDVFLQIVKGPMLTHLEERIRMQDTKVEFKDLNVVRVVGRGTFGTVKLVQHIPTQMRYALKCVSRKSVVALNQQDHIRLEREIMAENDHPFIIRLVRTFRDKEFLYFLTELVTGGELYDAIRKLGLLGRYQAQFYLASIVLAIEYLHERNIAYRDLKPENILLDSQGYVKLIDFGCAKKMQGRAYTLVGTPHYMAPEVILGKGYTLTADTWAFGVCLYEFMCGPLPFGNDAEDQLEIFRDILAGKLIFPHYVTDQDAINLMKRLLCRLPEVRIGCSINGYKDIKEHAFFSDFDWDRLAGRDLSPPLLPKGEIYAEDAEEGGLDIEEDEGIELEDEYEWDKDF
Experiment: Inhibition of Et-PKG

| Compound | IC50 [nM] |
| --- | --- |
| CCOC(=O)N1CCN(Cc2ccn3c(-c4ccnc(N[C@@H](C)c5ccccc5)n4)c(-c4ccc(F)cc4)nc3c2)CC1 | 5.6 |
| C[C@H](Nc1nccc(-c2c(-c3ccc(F)cc3)nc3cc(CN(C)CC(=O)N4CCC4)ccn23)n1)c1ccccc1 | 0.57 |
| C[C@H](Nc1nccc(-c2c(-c3ccc(F)cc3)nc3cc(CN(C)CC4CCCO4)ccn23)n1)c1ccccc1 (stereo partly drawn) | 0.27 |
| CN(C)Cc1ccn2c(-c3ccnc(Nc4ccccc4)n3)c(-c3ccc(F)cc3)nc2c1 | 0.06 |
| C[C@H](Nc1nccc(-c2c(-c3ccc(F)cc3)nc3cc(CN(C)CCN4CCC4)ccn23)n1)c1ccccc1 | 0.1 |
| C[C@H](Nc1nccc(-c2c(-c3ccc(F)cc3)nc3cc(CN(C)CCNS(C)(=O)=O)ccn23)n1)c1ccccc1 | 0.15 |
| C[C@H](Nc1nccc(-c2c(-c3ccc(F)cc3)nc3cc(CN(C)CCO)ccn23)n1)c1ccccc1 | 0.11 |
| CC(C)(C)CNc1nccc(-c2c(-c3ccc(F)cc3)nc3cc(CN4CCC4)ccn23)n1 | 0.45 |
| C[C@H](Nc1nccc(-c2c(-c3ccc(F)cc3)nc3cc(CN(C)CC(=O)N4CCCC4)ccn23)n1)c1ccccc1 | 0.39 |
| C[C@H](Nc1nccc(-c2c(-c3ccc(F)cc3)nc3cc(CN(C)CCCN(C)C)ccn23)n1)c1ccccc1 | 0.07 |

Next, values leading:

| IC50 [nM] | Compound |
| --- | --- |
| 0.31 | CN(C)Cc1ccn2c(-c3ccnc(NC(C)(C)C)n3)c(-c3ccc(F)cc3)nc2c1 |
| 0.6 | CC(C)N(C)Cc1ccn2c(-c3ccnc(NCC(C)(C)C)n3)c(-c3ccc(F)cc3)nc2c1 |
| 0.26 | C[C@H](Nc1nccc(-c2c(-c3ccc(F)cc3)nc3cc(CN(C)[C@@H](C)C(=O)N(C)C)ccn23)n1)c1ccccc1 |
| 0.15 | C[C@H](Nc1nccc(-c2c(-c3ccc(F)cc3)nc3cc(CN(C)C(CO)CO)ccn23)n1)c1ccccc1 |
| 0.86 | CC(C)Nc1nccc(-c2c(-c3ccc(F)cc3)nc3cc(CN4CCC4)ccn23)n1 |
| 0.28 | CN(C)Cc1ccn2c(-c3ccnc(NCC(C)(C)C)n3)c(-c3ccc(F)cc3)nc2c1 |
| 0.2 | CC(C)Nc1nccc(-c2c(-c3ccc(F)cc3)nc3cc(CN(C)C)ccn23)n1 |
| 0.29 | CCN(C)Cc1ccn2c(-c3ccnc(NCC(C)(C)C)n3)c(-c3ccc(F)cc3)nc2c1 |
| 0.11 | CC(C)N(C)Cc1ccn2c(-c3ccnc(N[C@@H](C)c4ccccc4)n3)c(-c3ccc(F)cc3)nc2c1 |
| 2.8 | CC(C)N(C)Cc1ccn2c(-c3ccnc(NC(C)(C)C)n3)c(-c3ccc(F)cc3)nc2c1 |
| 0.05 | CC(C)NCc1ccn2c(-c3ccnc(N[C@@H](C)c4ccccc4)n3)c(-c3ccc(F)cc3)nc2c1 |
| 0.13 | CCN(C)Cc1ccn2c(-c3ccnc(N[C@@H](C)c4ccccc4)n3)c(-c3ccc(F)cc3)nc2c1 |
| 1.3 | CC(C)Nc1nccc(-c2c(-c3ccc(F)cc3)nc3cc(CN(C)C(C)C)ccn23)n1 |

System: Eimeria tenella
Experiment: Anticoccidial activity against Eimeria tenella infected Chick assessed as reduction in oocyst production at 25ppm after 7 days
Type: functional
Parameters: scale not given: the % may be the effect or the level left

| Compound | Activity [%] |
| --- | --- |
| C[C@H](Nc1nccc(-c2c(-c3ccc(F)cc3)nc3cc(CN(C)CC4CCCO4)ccn23)n1)c1ccccc1 (stereo partly drawn) | >80 |
| CN(C)Cc1ccn2c(-c3ccnc(NCc4ccccc4)n3)c(-c3ccc(F)cc3)nc2c1 | >80 |
| CC(C)N(C)Cc1ccn2c(-c3ccnc(NCC(C)(C)C)n3)c(-c3ccc(F)cc3)nc2c1 | <50 |
| C[C@H](Nc1nccc(-c2c(-c3ccc(F)cc3)nc3cc(CN(C)[C@@H](C)C(=O)N(C)C)ccn23)n1)c1ccccc1 | 50 |
| C[C@H](Nc1nccc(-c2c(-c3ccc(F)cc3)nc3cc(CN(C)CCNS(C)(=O)=O)ccn23)n1)c1ccccc1 | >80 |
| CN(C)Cc1ccn2c(-c3ccnc(NCC(C)(C)C)n3)c(-c3ccc(F)cc3)nc2c1 | >80 |
| CC(C)Nc1nccc(-c2c(-c3ccc(F)cc3)nc3cc(CN(C)C)ccn23)n1 | >80 |
| CCN(C)Cc1ccn2c(-c3ccnc(NCC(C)(C)C)n3)c(-c3ccc(F)cc3)nc2c1 | >80 |
| CC(C)N(C)Cc1ccn2c(-c3ccnc(N[C@@H](C)c4ccccc4)n3)c(-c3ccc(F)cc3)nc2c1 | <50 |
| C[C@H](Nc1nccc(-c2c(-c3ccc(F)cc3)nc3cc(CN(C)CCO)ccn23)n1)c1ccccc1 | >80 |
| CC(C)(C)CNc1nccc(-c2c(-c3ccc(F)cc3)nc3cc(CN4CCC4)ccn23)n1 | <0 |
| CC(C)NCc1ccn2c(-c3ccnc(N[C@@H](C)c4ccccc4)n3)c(-c3ccc(F)cc3)nc2c1 | >80 |

System: Eimeria acervulina
Experiment: Anticoccidial activity against Eimeria acervulina infected Chick assessed as reduction in oocyst production at 12.5 ppm after 7 days
Type: functional
Parameters: scale not given: the % may be the effect or the level left

| Compound | Activity [%] |
| --- | --- |
| CN(C)Cc1ccn2c(-c3ccnc(Nc4ccccc4)n3)c(-c3ccc(F)cc3)nc2c1 | <50 |
| C[C@H](Nc1nccc(-c2c(-c3ccc(F)cc3)nc3cc(CN(C)CCCN(C)C)ccn23)n1)c1ccccc1 | 50 |
